Measured values taken from patent publication US9156790B2, “Anticancer P21-activated kinase inhibitors” (Ohio State Innovation Foundation, priority 2013, dated 2015).
Entries after “also recorded” stand apart in the source; their conditions may differ.

Columns and labels:
PAK2 = PAK2 (Homo sapiens, UniProt Q13177); assay: Kinase profiling panel: PAK2; format: biochemical; conditions: 5 μM compound; average of triplicate
Description: (§1) To further probe the selectivity of the compounds 4 and 15, they were subjected for kinase profiling service for screening against a panel of other kinases selected based on the kinase tree at 5 μM concentration, at or above the IC50 for the two compounds versus PAK in both in vitro and cell-based assays. […] PAK1 was not available for testing using this system thus it was not possible to compare directly in this assay system.

PAK5 = PAK5 (Homo sapiens, UniProt Q9P286); assay: Kinase profiling panel: PAK5; format: biochemical; conditions: 5 μM compound; average of triplicate
Description: as §1

PAK3 = PAK3 (Homo sapiens, UniProt O75914); assay: Kinase profiling panel: PAK3; format: biochemical; conditions: 5 μM compound; average of triplicate
Description: as §1

[1] = tested on: PDK1 phosphorylation of Akt (Thr308); assay: Western blot, PDK1 phosphorylation of Akt (Thr308) in thyroid cancer cells; format: cell-based, Human; conditions: BCPAP; for PDK1 phosphorylation of Akt (Thr308) (Western blot): 7.5 μM, 6 h, FTC133 and TPC1 cells (FIG. 3); for Dose-dependency of PDK-mediated Akt phosphorylation: dose-response, 6 hours, FTC133 and TPC1 cells (FIG. 4A)
Description: (§2) Protein isolation and Western blot were performed as previously described. Ringel et al., Cancer research 61:6105-6111 (2001). 25 μg of total cell lysates were loaded into 4-12% SDS-PAGE, electrophoresed, and transferred to nitrocellulose membranes for immunoblotting. Primary antibodies against Akt (#9272), phospho-Akt (Thr308) (#2965), p44/42 MAPK (Erk1/2) (#9107), phospho-p44/42 MAPK (Erk1/2) (Thr202/Tyr204) (#4377) and GAPDH (#2118) were obtained from Cell Signaling Technology (Danvers, Mass., USA). Antibody against Vimentin (V6630) and phospho-Ser55 Vimentin were from Sigma-Aldrich, Inc. (St. Louis, Mo.) and MBL Co. (Nagoya, Japan), respectively. Antibodies against total and phosphorylated S6 were from Cell Signaling Technology®.
(§3) The ability of the compounds with in vitro anti-PAK1 activity was assessed for activity […] in thyroid cancer cells. In addition, because the compounds are based on the structure of a PDK1 inhibitor, PDK1 inhibitory activity was also assessed. Inhibitory activity in cells was estimated using Western blot with primary antibodies directed against kinase-specific phosphorylation sites; serine 56 of vimentin for PAK and threonine 308 of Akt for PDK1. BCPAP, TPC1, and FTC133 thyroid cancer cells were utilized. BCPAP and TPC1 are derived from PTC and have BRAF V600E and RET/PTC1 rearrangements, respectively. FTC133 is derived from a follicular thyroid cancer with an inactivating mutation of PTEN. Similar to the kinase screening assay, cells were treated with the six compounds or OSU-03012 at 7.5 μM concentration or with DMSO vehicle alone. The results were not entirely consistent across the three cell lines presumably related to mutation status or other factors. OSU-03012 inhibited both PDK1 and PAK-mediated phosphorylation of targets as predicted.
(§4) The dose-dependency of compounds 4 and 15 was next assessed (FIG. 4). […] Due to the important role that ERK activation plays in thyroid cancer, and its signaling activation by thyroid oncogenes, the effects of the compounds on ERK phosphorylation was also assessed.

other PAK kinases = assay: Kinase profiling panel: other PAK kinases (summary statement); format: biochemical; conditions: 5 μM compound
Description: as §1

[2] = tested on: BCPAP cells transfected with constitutively activated PAK1 cDNA; assay: Migration rescue experiment with constitutively activated PAK1; format: cell-based, Human; conditions: 1 μM compound, 24 hours, P<0.05
Description: Myc-tagged constitutively activated (CA) PAK1 cDNAs was the generous gift of Dr. Jonathan Chernoff (Fox Chase Cancer Center, Philadelphia, Pa.). Sells et al., J Cell Biol 145:837-849 (1999). pRC/CMV and pcDNA3.1(+) vector were purchased from Life Technologies. BCPAP cells were grown in RPMI containing 10% FBS until 40-50% confluent. They were transfected with CAPAK1 cDNA or a vector control, washed with PBS, trypsinized with 0.05% Trypsin-EDTA 1× (Gibco) for 5-10 min, collected with 10% FBS RPMI, and centrifuged at 300 g for 5 min. Cells were resuspended with 0% FBS RPMI and counted using Countess™ (Invitrogen). Then a volume of 1×10^5 cells suspended in 300 μl of 0% FBS RPMI was placed into Boyden chamber inserts (8 μm pore). The inserts were placed into wells of a 24 well plate filled with 400 μl of 0% FBS RPMI. The plate was incubated at 37° C. 5% CO2 for 1 hour. Then 30 μl (1 μM) of either compound 4 or 15 was added to the inserts and then incubated again for 1 hour. The inserts were transferred into different wells filled with 400 μl of 10% FBS RPMI. After incubation for 24 hours, the cells on either side of the insert membrane were fixed and quantified as above. Experiments were performed in triplicate on three occasions.
Because the compounds are multikinase inhibitors, we next sought to determine if PAK1 inhibition was responsible for some of the biological effects of the compounds. […]

ROCK-II = ROCK-II (Homo sapiens, UniProt O75116); assay: Kinase profiling panel: ROCK-II; format: biochemical; conditions: 5 μM compound; average of triplicate
Description: as §1

Ret = Ret (Homo sapiens, UniProt P07949); assay: Kinase profiling panel: Ret; format: biochemical; conditions: 5 μM compound; average of triplicate
Description: as §1

LIMK1 = LIMK1 (Homo sapiens, UniProt P53667); assay: Kinase profiling panel: LIMK1; format: biochemical; conditions: 5 μM compound; average of triplicate
Description: as §1

S6 phosphorylation = assay: Western blot, S6 phosphorylation in thyroid cancer cells; format: cell-based, Human; conditions: for S6 phosphorylation, BCPAP and TPC1 cells: BCPAP and TPC1 cells (FIG. 4B)
Description: as §2, §4

[3] = tested on: PAK phosphorylation of Vimentin (Ser56); assay: Western blot, PAK phosphorylation of Vimentin (Ser56) in thyroid cancer cells; format: cell-based, Human; conditions: for PAK phosphorylation of vimentin (Western blot): 7.5 μM, 6 h, FTC133 and TPC1 cells (FIG. 3); for PAK phosphorylation of vimentin (Western blot) / Dose-dependency of PAK inhibition (Vimentin phosphorylation): BCPAP; for IC50: Homo sapiens, cell-based assays, read-out: IC50 versus PAK, cell-based; for Dose-dependency of PAK inhibition (Vimentin phosphorylation): dose-response, 6 hours, FTC133 and TPC1 cells (FIG. 4A)
Description: as §2, §3, §4

PAK6 = PAK6 (Homo sapiens, UniProt Q9NQU5); assay: Kinase profiling panel: PAK6; format: biochemical; conditions: 5 μM compound; average of triplicate
Description: as §1

CDK5/p25 = CDK5/p25 (Homo sapiens, UniProt Q00535); assay: Kinase profiling panel: CDK5/p25; format: biochemical; conditions: 5 μM compound; average of triplicate
Description: as §1

Sequence of PAK2 (Q13177 whole entry, species assumed): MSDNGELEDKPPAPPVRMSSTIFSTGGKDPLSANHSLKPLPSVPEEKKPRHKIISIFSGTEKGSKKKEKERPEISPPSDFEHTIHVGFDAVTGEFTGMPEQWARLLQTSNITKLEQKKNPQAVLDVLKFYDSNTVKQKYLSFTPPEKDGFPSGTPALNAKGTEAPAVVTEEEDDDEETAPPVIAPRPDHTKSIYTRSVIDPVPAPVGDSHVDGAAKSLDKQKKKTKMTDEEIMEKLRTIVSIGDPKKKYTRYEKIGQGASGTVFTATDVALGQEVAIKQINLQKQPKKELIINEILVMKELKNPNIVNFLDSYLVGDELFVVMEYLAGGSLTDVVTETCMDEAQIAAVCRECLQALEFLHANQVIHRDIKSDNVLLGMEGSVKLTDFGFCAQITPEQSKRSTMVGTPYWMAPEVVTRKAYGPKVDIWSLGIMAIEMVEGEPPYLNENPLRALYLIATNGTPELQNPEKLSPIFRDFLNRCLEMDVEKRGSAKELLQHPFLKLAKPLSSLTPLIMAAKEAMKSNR
Sequence of Ret (P07949 29-1114, species assumed): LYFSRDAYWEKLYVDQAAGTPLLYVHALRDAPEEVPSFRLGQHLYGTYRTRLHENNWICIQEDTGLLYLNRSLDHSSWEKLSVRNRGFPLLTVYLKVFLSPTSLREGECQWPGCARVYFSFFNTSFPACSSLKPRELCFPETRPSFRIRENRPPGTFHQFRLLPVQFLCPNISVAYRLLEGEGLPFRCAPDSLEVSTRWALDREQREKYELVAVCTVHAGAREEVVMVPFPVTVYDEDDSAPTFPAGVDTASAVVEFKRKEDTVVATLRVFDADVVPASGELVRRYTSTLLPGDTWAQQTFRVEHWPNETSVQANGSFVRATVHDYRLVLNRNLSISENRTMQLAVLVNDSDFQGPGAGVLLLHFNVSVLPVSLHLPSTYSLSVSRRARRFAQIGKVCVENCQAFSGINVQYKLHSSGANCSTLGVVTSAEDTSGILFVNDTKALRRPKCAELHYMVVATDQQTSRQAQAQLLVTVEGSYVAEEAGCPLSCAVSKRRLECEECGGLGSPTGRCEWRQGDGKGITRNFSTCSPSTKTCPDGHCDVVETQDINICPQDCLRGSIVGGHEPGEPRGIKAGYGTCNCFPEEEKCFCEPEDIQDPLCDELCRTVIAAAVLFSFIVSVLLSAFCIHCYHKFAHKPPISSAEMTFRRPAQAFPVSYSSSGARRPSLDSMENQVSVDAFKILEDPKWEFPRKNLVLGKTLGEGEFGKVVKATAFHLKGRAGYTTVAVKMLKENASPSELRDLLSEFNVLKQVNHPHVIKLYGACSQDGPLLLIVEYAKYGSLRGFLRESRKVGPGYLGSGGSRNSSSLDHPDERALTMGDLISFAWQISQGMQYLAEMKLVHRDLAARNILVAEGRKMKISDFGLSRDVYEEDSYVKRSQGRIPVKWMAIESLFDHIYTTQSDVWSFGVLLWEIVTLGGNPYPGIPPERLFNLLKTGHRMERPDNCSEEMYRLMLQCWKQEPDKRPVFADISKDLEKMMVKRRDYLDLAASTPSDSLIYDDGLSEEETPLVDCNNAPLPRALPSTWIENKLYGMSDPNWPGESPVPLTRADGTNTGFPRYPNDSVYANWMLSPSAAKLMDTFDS
Sequence of LIMK1 (P53667 whole entry, species assumed): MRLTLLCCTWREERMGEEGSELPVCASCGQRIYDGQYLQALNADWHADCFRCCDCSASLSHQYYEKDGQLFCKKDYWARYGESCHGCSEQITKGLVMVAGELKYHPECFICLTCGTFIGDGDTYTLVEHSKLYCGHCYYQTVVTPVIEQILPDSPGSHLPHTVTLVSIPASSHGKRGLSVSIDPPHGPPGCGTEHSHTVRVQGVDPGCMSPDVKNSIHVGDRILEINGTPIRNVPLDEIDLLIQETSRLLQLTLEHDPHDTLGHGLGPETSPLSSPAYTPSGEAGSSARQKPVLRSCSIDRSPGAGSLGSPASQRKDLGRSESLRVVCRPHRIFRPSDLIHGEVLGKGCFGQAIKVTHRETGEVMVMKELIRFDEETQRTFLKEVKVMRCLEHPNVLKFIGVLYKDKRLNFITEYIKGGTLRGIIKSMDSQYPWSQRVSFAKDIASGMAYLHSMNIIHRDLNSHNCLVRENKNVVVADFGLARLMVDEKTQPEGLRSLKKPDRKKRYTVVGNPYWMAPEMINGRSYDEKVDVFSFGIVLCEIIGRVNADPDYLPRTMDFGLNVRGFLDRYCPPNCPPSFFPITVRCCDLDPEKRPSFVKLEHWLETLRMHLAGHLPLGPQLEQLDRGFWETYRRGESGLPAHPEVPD
Sequence of PAK5 (Q9P286 whole entry): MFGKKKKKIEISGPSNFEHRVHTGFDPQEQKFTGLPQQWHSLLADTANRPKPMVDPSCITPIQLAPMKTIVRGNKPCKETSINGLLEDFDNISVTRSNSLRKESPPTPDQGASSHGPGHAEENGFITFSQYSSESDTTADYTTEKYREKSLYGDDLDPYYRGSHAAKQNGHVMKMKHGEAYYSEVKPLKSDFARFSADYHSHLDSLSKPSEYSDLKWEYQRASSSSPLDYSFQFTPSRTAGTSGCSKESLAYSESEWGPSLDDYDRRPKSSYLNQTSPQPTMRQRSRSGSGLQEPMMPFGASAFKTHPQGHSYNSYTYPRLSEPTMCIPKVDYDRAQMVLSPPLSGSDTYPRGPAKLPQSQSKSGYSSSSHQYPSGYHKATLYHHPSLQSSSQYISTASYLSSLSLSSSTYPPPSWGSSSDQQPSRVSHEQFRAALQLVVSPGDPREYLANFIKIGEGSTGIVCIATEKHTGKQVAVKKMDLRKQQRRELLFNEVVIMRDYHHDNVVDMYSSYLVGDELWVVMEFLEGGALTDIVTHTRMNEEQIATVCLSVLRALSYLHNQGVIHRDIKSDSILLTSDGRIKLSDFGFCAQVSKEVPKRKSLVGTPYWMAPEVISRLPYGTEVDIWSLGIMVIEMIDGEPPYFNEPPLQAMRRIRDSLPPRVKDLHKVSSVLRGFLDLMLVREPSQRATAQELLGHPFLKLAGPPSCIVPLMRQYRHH
Sequence of CDK5/p25 (Q00535 whole entry, species assumed): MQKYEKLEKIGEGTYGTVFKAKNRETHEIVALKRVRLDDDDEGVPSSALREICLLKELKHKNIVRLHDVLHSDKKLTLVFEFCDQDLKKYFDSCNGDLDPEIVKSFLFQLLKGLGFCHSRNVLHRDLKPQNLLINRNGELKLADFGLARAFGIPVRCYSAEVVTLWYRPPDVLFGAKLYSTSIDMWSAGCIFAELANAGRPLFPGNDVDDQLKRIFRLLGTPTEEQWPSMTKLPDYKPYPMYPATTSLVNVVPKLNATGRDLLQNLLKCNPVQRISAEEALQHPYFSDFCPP
Sequence of CDK5/p25 (Q15078 99-307 partner limits assumed, species assumed): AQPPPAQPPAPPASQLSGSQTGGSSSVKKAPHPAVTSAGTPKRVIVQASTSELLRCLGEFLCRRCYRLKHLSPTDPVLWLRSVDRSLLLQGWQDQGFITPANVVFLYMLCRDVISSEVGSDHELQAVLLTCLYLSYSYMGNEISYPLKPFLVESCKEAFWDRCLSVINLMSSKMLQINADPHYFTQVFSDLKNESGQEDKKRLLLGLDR
Sequence of PAK6 (Q9NQU5 whole entry, species assumed): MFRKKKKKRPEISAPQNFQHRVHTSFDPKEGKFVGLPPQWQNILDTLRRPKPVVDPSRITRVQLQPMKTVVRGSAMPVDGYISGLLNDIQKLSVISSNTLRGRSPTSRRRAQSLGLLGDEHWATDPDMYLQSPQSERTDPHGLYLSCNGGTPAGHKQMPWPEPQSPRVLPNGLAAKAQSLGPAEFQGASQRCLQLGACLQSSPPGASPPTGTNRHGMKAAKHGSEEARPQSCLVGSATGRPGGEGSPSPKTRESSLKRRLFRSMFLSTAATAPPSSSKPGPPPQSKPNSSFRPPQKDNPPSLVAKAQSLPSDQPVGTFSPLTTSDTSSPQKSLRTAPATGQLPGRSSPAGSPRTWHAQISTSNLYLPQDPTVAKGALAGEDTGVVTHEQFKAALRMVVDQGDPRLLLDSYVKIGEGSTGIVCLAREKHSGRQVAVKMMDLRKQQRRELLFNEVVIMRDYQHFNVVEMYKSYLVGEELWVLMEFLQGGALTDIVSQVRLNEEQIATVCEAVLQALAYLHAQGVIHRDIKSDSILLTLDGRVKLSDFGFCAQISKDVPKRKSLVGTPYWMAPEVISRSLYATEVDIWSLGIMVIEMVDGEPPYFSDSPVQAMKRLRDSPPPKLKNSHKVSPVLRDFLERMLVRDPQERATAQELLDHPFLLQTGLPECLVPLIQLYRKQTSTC
Sequence of PAK3 (O75914 whole entry, species assumed): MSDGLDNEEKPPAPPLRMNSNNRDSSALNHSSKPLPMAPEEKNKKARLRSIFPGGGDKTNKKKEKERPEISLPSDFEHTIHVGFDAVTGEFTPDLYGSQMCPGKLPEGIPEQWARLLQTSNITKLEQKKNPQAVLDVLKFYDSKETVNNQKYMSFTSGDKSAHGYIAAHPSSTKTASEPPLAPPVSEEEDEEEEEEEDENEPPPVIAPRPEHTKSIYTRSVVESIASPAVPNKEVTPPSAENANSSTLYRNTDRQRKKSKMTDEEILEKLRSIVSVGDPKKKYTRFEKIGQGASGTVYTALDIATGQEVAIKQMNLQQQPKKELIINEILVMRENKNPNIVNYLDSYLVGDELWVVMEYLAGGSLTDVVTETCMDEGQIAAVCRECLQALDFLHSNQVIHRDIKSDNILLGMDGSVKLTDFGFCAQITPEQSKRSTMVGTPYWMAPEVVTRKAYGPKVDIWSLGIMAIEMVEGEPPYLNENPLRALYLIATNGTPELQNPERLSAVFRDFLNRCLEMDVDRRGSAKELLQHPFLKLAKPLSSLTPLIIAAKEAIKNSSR

SMILES | % activity vs. DMSO, PAK2 (PAK2) [%] | % activity vs. DMSO, PAK5 (PAK5) [%] | % activity vs. DMSO, PAK3 (PAK3) [%] | PDK1 phosphorylation of Akt (Thr308) (Western blot) [1] | Dose-dependency of PDK-mediated Akt phosphorylation [1] | Activity versus other PAK kinases (other PAK kinases) | Rescue of anti-migratory effect by constitutively activated PAK1 [2] | % activity vs. DMSO, ROCK-II (ROCK-II) [%] | % activity vs. DMSO, Ret (Ret) [%] | % activity vs. DMSO, LIMK1 (LIMK1) [%] | S6 phosphorylation, BCPAP and TPC1 cells (S6 phosphorylation) | PAK phosphorylation of vimentin (Western blot) [3] | IC50 [3] [µM] | Dose-dependency of PAK inhibition (Vimentin phosphorylation) [3] | % activity vs. DMSO, PAK6 (PAK6) [%] | % activity vs. DMSO, CDK5/p25 (CDK5/p25) [%] | S6 phosphorylation, FTC133 cells (S6 phosphorylation; FTC133 cells (FIG. 4B))
NCCC(=O)Nc1ccc(-n2nc(C(F)(F)F)cc2-c2ccc3ccc4ccccc4c3c2)cc1 [Compound 4, 3-amino-N-(4-(5-(phenanthren-3-yl)-3-(trifluoromethyl)-1H-pyrazol-1-yl)phenyl)-propanamide] | 70 | 114 | 211 | without altering PDK1 activity; also recorded: did not block PDK1-mediated Akt phosphorylation | not reduced | did not have activity versus other PAK kinases | rescued | 79 | 97 | 130 | inhibited this phosphorylation | inhibited PAK | ≤ 5 | inhibited PAK1 in a dose dependent manner | 81 | 113 | 
CC(C)NC(=O)c1cc(-c2ccc3ccc4ccccc4c3c2)n(-c2ccc(NC(=O)CN)cc2)n1 [Compound 15, 1-(4-(2-Aminoacetamido)phenyl)-N-isopropyl-5-(phenanthren-3-yl)-1H-pyrazole-3-carboxamide] | 81 | 104 | 99 | without altering PDK1 activity; also recorded: did not block PDK1-mediated Akt phosphorylation | not reduced | did not have activity versus other PAK kinases | rescued | 96 | 76 | 117 | inhibited 56 phosphorylation | inhibited PAK | ≤ 5 | inhibited PAK1 in a dose dependent manner | 101 | 93 | inhibited 56 phosphorylation
